According to article PMC12423301, “Astrocytic monoamine oxidase B (MAOB)–gamma-aminobutyric acid (GABA) axis as a molecular brake on repair following spinal cord injury” (Signal Transduction and Targeted Therapy, 2025):
“Also recorded” adds a separate entry of the source.

Assays:
rat SCI model = assay: Immunohistochemistry of injured rat spinal cord; assay type: in vivo, Sprague-Dawley (SD) rats
Experimental: Immunohistochemistry was performed as previously described.[70] The tissue sections were blocked and treated with primary antibodies. After overnight incubation at 4 °C, species-specific fluorescent secondary antibodies were applied for visualization. The tissue sections were then stained with 4’,6-diamidino-2-phenylindole (DAPI) during mounting. This protocol allows a detailed assessment of various cellular markers involved in SCI and recovery processes.
The secondary antibodies used included FITC-donkey anti-mouse IgG (H + L) (1:150, 715-095-151), Cy^TM3-donkey anti-mouse IgG (H + L) (1:600, 715-165-151), FITC-donkey anti-rabbit IgG (H + L) (1:150, 711-095-152), Alexa Fluor 594-donkey anti-rabbit IgG (H + L) (1:500, 711-585-152), Alexa Fluor 647-donkey anti-rabbit IgG (H + L) (1:500, 711-605-152), Cy^TM3-donkey anti-chicken IgG (H + L) (1:600, 703-165-155), DyLightTM405-donkey anti-chicken IgY + + (H + L) (1:600, 703-476-155), Alexa Fluor 488-donkey anti-chicken IgY (IgG) (H + L) (1:500, 703-545-155), Alexa Fluor 594-donkey anti-chicken IgY (IgG) (H + L) (1:500, 703-585-155), Alexa Fluor 488-donkey anti-goat IgG (H + L) (1:500, 705-545-003), and Alexa Fluor 647-donkey anti-goat IgG (H + L) (1:300, 705-606-147). All secondary antibodies were purchased from Jackson ImmunoResearch.
The fluorescence images were observed via confocal laser scanning microscopy (LSM700 or LSM710, Carl Zeiss), and analyzed via the ImageJ (NIH) software. For visualizing the mCh-positive signals of proliferating or proliferated cells, Z-stack images acquired in 1-μm steps were processed for 3D surface rendering of mCh-positive signals using IMARIS software (version 9.0.1, Oxford Instruments).

[1] = Body weight of rats on medicated drinking water; assay type: in vivo, rat
Experimental: (S)-2-(((4’-Trifluoromethylbiphenyl-4-yl)methyl)amino)propanamide methane-sulfonate (KDS2010) was dissolved in distilled water. For SD rats, KDS2010 was administered via the drinking water ad libitum. […] To evaluate dose-dependent effects, additional groups received 20 mg/kg/day or 30 mg/kg/day starting at PI 2 weeks. To achieve consistent exposure across animals, we meticulously monitored the daily water intake and body weight of each rat throughout the study. As shown in the Extended Data (Supplementary Table 1), water consumption was calculated weekly via a formula based on body weight (e.g., d.w = weight × 0.09 at week 0; gradually tapering to weight × 0.075 by weeks 8–9). Importantly, all animals were confirmed to have consumed the entirety of the provided medicated water each day, ensuring full ingestion of the intended dose (10 mg/kg/day for the majority of groups, and 20/30 mg/kg/day for the dose-dependent experiments).

[2] = SCI+KDS 10mpk, 20mpk, and 30mpk vs SCI+V, PI 10w
[3] = SCI+KDS 1d/Re vs SCI+V and SCI+KDS 1d/No, PI 10w

## CS(=O)(=O)O.C[C@H](NCc1ccc(-c2ccc(C(F)(F)F)cc2)cc1)C(N)=O [KDS2010, (S)-2-(((4’-Trifluoromethylbiphenyl-4-yl)methyl)amino)propanamide methane-sulfonate]
Rat SCI model; KDS2010 treatment compared with SCI + V
  GFAP intensity: significantly reduced
Rat SCI model; MAOB inhibition from the subacute phase, PI 10w
  intensity of TrkB in neurons, oligodendrocytes, and astrocytes: significantly increased
Rat SCI model; SCI + KDS 2w vs SCI + V, PI 10w
  neurons positive for both Ki67 and NeuN: significantly increased; also recorded: significant increase
Rat SCI model; SCI + KDS 2w, 10 mpk, PI 10w
  intensity of GABA in GFAP-positive astrocytes: significantly recovered; also recorded: significantly attenuated
Rat SCI model; SCI + KDS 2w, PI 10w
  MAP2 intensity: fully restored
  MBP intensity: significant recovery
  expression of astrocytic GFAP and MAOB: returned to normal levels
  intensity of proBDNF in astrocytes and neurons: significantly increased
  number of NeuN-positive neurons: significant recovery
  oligodendrocytes positive for both Ki67 and MBP: substantial population; also recorded: significantly increased
Rat SCI model; SCI+KDS 6w
  intensity of GABA and astrocytic DAO: significantly reduced
Rat SCI model; SCI+KDS 6w vs SCI+V
  intensity of proBDNF: significantly increased
Rat SCI model; SCI+KDS 6w vs SCI+V, PI 14w
  astrocytic GFAP and MAOB expression: significantly decreased
  intensity of MAP2: significant increase
  intensity of MBP-positive TrkB: significantly increased
Rat SCI model; [2]
  intensities of GFAP and GABA: significantly reduced
  intensity of MAP2: significant increase
  intensity of MBP: significant recovery
  intensity of MBP-positive TrkB: significant recovery
  intensity of astrocytic DAO: significantly decreased
  intensity of proBDNF: significantly increased
Rat SCI model; SCI+KDS 1d/No
  GFAP levels: persistently high GFAP levels
  alternative diamine oxidase (DAO) pathway: activated
Rat SCI model; SCI+KDS 1d/Re
  intensity of GABA and astrocytic DAO: significantly reduced
Rat SCI model; SCI+KDS 1d/Re vs SCI+V and SCI+KDS 1d/No
  intensity of proBDNF: significantly increased
Rat SCI model; [3]
  astrocytic GFAP and MAOB expression: significantly decreased
  intensity of MAP2: significant increase
Rat SCI model; all doses (10mpk, 20mpk, 30mpk) vs SCI+V, PI 10w
  astrocytic MAOB expression: significant reduction
Rat SCI model; rat SCI, KDS2010 treatment
  expression of CSPGs (neurocan, phosphacan): notably reduced
[1]; SCI/KDS 2w 20mpk, 0w
  Weekly change in body weight: 0.00 g
[1]; SCI/KDS 2w 20mpk, 1w
  Weekly change in body weight: 29.33 g
[1]; SCI/KDS 2w 20mpk, 2w
  Weekly change in body weight: 13.61 g
[1]; SCI/KDS 2w 20mpk, 3w
  Weekly change in body weight: 54.00 g
[1]; SCI/KDS 2w 20mpk, 4s
  Weekly change in body weight: 16.28 g
[1]; SCI/KDS 2w 20mpk, 5s
  Weekly change in body weight: 31.61 g
[1]; SCI/KDS 2w 20mpk, 6s
  Weekly change in body weight: 12.56 g
[1]; SCI/KDS 2w 20mpk, 7w
  Weekly change in body weight: 24.17 g
[1]; SCI/KDS 2w 20mpk, 8w
  Weekly change in body weight: 13.00 g
[1]; SCI/KDS 2w 20mpk, 9w
  Weekly change in body weight: 10.89 g
[1]; SCI/KDS 2w 30mpk, 0w
  Weekly change in body weight: 0.00 g
[1]; SCI/KDS 2w 30mpk, 1w
  Weekly change in body weight: 34.43 g
[1]; SCI/KDS 2w 30mpk, 2w
  Weekly change in body weight: 10.86 g
[1]; SCI/KDS 2w 30mpk, 3w
  Weekly change in body weight: 39.90 g
[1]; SCI/KDS 2w 30mpk, 4s
  Weekly change in body weight: 17.36 g
[1]; SCI/KDS 2w 30mpk, 5s
  Weekly change in body weight: 22.40 g
[1]; SCI/KDS 2w 30mpk, 6s
  Weekly change in body weight: 10.84 g
[1]; SCI/KDS 2w 30mpk, 7w
  Weekly change in body weight: 19.91 g
[1]; SCI/KDS 2w 30mpk, 8w
  Weekly change in body weight: 17.56 g
[1]; SCI/KDS 2w 30mpk, 9w
  Weekly change in body weight: 3.43 g
[1]; SCI/KDS 2w, 0w
  Weekly change in body weight: 0.00 g
[1]; SCI/KDS 2w, 1w
  Weekly change in body weight: 47.67 g
[1]; SCI/KDS 2w, 2w
  Weekly change in body weight: 16.00 g
[1]; SCI/KDS 2w, 3w
  Weekly change in body weight: 33.67 g
[1]; SCI/KDS 2w, 4s
  Weekly change in body weight: 31.00 g
[1]; SCI/KDS 2w, 5s
  Weekly change in body weight: 31.33 g
[1]; SCI/KDS 2w, 6s
  Weekly change in body weight: 16.67 g
[1]; SCI/KDS 2w, 7w
  Weekly change in body weight: 18.33 g
[1]; SCI/KDS 2w, 8w
  Weekly change in body weight: 11.67 g
[1]; SCI/KDS 2w, 9w
  Weekly change in body weight: 7.17 g
[1]; SCI/KDS 2w, 10w
  Weekly change in body weight: 14.50 g
[1]; SCI/KDS 2w, 11w
  Weekly change in body weight: 8.00 g
[1]; SCI/KDS 2w, 12w
  Weekly change in body weight: 1.50 g
[1]; SCI/KDS 2w, 13w
  Weekly change in body weight: 7.50 g
[1]; SCI/KDS 6w, 0w
  Weekly change in body weight: 0.00 g
[1]; SCI/KDS 6w, 1w
  Weekly change in body weight: 24.00 g
[1]; SCI/KDS 6w, 2w
  Weekly change in body weight: 27.50 g
[1]; SCI/KDS 6w, 3w
  Weekly change in body weight: 36.00 g
[1]; SCI/KDS 6w, 4s
  Weekly change in body weight: 31.50 g
[1]; SCI/KDS 6w, 5s
  Weekly change in body weight: 14.50 g
[1]; SCI/KDS 6w, 6s
  Weekly change in body weight: 13.00 g
[1]; SCI/KDS 6w, 7w
  Weekly change in body weight: 17.50 g
[1]; SCI/KDS 6w, 8w
  Weekly change in body weight: 7.00 g
[1]; SCI/KDS 6w, 9w
  Weekly change in body weight: 13.00 g
[1]; SCI/KDS 6w, 10w
  Weekly change in body weight: 11.00 g
[1]; SCI/KDS 6w, 11w
  Weekly change in body weight: 8.00 g
[1]; SCI/KDS 6w, 12w
  Weekly change in body weight: 7.00 g
[1]; SCI/KDS 6w, 13w
  Weekly change in body weight: 8.00 g
[1]; SCI/KDS 1d, 0w
  Weekly change in body weight: 0.00 g
[1]; SCI/KDS 1d, 1w
  Weekly change in body weight: -44.55 g
[1]; SCI/KDS 1d, 2w
  Weekly change in body weight: 21.82 g
[1]; SCI/KDS 1d, 3w
  Weekly change in body weight: 23.03 g
[1]; SCI/KDS 1d, 4s
  Weekly change in body weight: 50.91 g
[1]; SCI/KDS 1d, 5s
  Weekly change in body weight: 28.03 g
[1]; SCI/KDS 1d, 6s
  Weekly change in body weight: 16.82 g
[1]; SCI/KDS 1d, 7w
  Weekly change in body weight: 19.85 g
[1]; SCI/KDS 1d, 8w
  Weekly change in body weight: 14.70 g
[1]; SCI/KDS 1d, 9w
  Weekly change in body weight: 7.88 g
[1]; Sham/KDS 2w, 0w
  Weekly change in body weight: 0.00 g
[1]; Sham/KDS 2w, 1w
  Weekly change in body weight: 33.00 g
[1]; Sham/KDS 2w, 2w
  Weekly change in body weight: 17.00 g
[1]; Sham/KDS 2w, 3w
  Weekly change in body weight: 32.00 g
[1]; Sham/KDS 2w, 4s
  Weekly change in body weight: 31.00 g
[1]; Sham/KDS 2w, 5s
  Weekly change in body weight: 21.00 g
[1]; Sham/KDS 2w, 6s
  Weekly change in body weight: 8.00 g
[1]; Sham/KDS 2w, 7w
  Weekly change in body weight: 25.00 g
[1]; Sham/KDS 2w, 8w
  Weekly change in body weight: 10.00 g
[1]; Sham/KDS 2w, 9w
  Weekly change in body weight: 10.00 g
[1]; Sham/KDS 1d, 0w
  Weekly change in body weight: 0.00 g
[1]; Sham/KDS 1d, 1w
  Weekly change in body weight: 26.67 g
[1]; Sham/KDS 1d, 2w
  Weekly change in body weight: 3.33 g
[1]; Sham/KDS 1d, 3w
  Weekly change in body weight: 30.00 g
[1]; Sham/KDS 1d, 4s
  Weekly change in body weight: 50.00 g
[1]; Sham/KDS 1d, 5s
  Weekly change in body weight: 25.00 g
[1]; Sham/KDS 1d, 6s
  Weekly change in body weight: 21.67 g
[1]; Sham/KDS 1d, 7w
  Weekly change in body weight: 18.33 g
[1]; Sham/KDS 1d, 8w
  Weekly change in body weight: 8.33 g
[1]; Sham/KDS 1d, 9w
  Weekly change in body weight: 23.33 g
